Common to all, as to assay: NCI tumour cell line growth inhibition, 48 h
Assay [1] deals with LXFL 529 NSCLC.
Assay [2] deals with DMS 114 small cell lung.
Assay [3] deals with DLD-1 colon.
For assay [4], the system named is SNB-78 CNS.
Assay [5] has as its system P388 leukemia.
The subject of assay [6] is HOP-18 NSCLC.
The subject of assay [7] is SN12K1 renal.

Here are results for four compounds from PubChem BioAssay (NCI).

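These data come from cells grown in 96-well plates and exposed to compound for 48 hours at five concentrations. TGI: total growth inhibition.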

On to `O=C(/C=C/CC(O)(c1ccccc1)c1ccccc1)Nc1ccccc1Cl`, for which the TGI in assay [1], in assay [2] and in assay [3] was greater than 100 µM throughout.

With `CCc1nc2c([nH]1)C(=O)c1ccccc1C2=O`, the TGI in assay [4] is greater than 100 µM; in assay [2], 70.6 µM; in assay [3] it was greater than 100 µM.

`O=c1ccn([C@@H]2C=C(CO)[C@@H](O)[C@H]2O)c(=O)[nH]1`: the TGI in assay [5], in assay [6], in assay [7] and in assay [3] was greater than 625 µM in each case.

Take `O=C(CCl)Nc1ccc(C(=O)N/N=C/c2ccc(Cl)cc2)cc1`: the TGI in assay [4] turned out to be 15.8 µM; in assay [1], 3.2 µM; in assay [2], 2.94 µM; in assay [3] it was 4.93 µM.
